Test results: PubChem BioAssay AID248 (DTP/NCI, 2004)
Where “and” joins values, the source holds several entries; their conditions need not be identical. Equal values may be shown once. Toxic doses and inconclusive results are not listed.

Tested on: L1210 leukemia ip in BDF1 mice, survival T/C
Experiment: NCI In Vivo Anticancer Drug Screen. Data for tumor model L1210 Leukemia (intraperitoneal) in B6D2F1 (BDF1) mice
Conditions: higher = longer survival
How it was run: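 Tumor cells were implanted, animals were treated, and survival was followed. The result divides the treated measurement by the vehicle-control measurement.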

[1] = endpoint: mean survival time, dose: 100.0 mg/kg/injection, schedule: Q04DX003 (ip), vehicle: saline with Tween-80
[2] = endpoint: mean survival time, dose: 200.0 mg/kg/injection, schedule: Q04DX003 (ip), vehicle: saline with Tween-80
[3] = endpoint: mean survival time, dose: 400.0 mg/kg/injection, schedule: Q04DX003 (ip), vehicle: saline with Tween-80
[4] = endpoint: mean survival time, dose: 150.0 mg/kg/injection, schedule: Q01DX001 (ip), vehicle: saline
[5] = endpoint: mean survival time, dose: 100.0 mg/kg/injection, schedule: Q01DX001 (ip), vehicle: carboxymethylcellulose (CMC)
[6] = endpoint: mean survival time, dose: 200.0 mg/kg/injection, schedule: Q01DX001 (ip), vehicle: carboxymethylcellulose (CMC)
[7] = endpoint: mean survival time, dose: 400.0 mg/kg/injection, schedule: Q01DX001 (ip), vehicle: carboxymethylcellulose (CMC)
[8] = endpoint: mean survival time, dose: 100.0 mg/kg/injection, schedule: Q01DX009 (ip), vehicle: Klucel (hydroxypropylcellulose) (HPC)
[9] = endpoint: mean survival time, dose: 100.0 mg/kg/injection, schedule: Q04DX003 (ip), vehicle: Klucel (hydroxypropylcellulose) (HPC)
[10] = endpoint: mean survival time, dose: 200.0 mg/kg/injection, schedule: Q01DX009 (ip), vehicle: Klucel (hydroxypropylcellulose) (HPC)
[11] = endpoint: mean survival time, dose: 200.0 mg/kg/injection, schedule: Q04DX003 (ip), vehicle: Klucel (hydroxypropylcellulose) (HPC)
[12] = endpoint: mean survival time, dose: 400.0 mg/kg/injection, schedule: Q01DX009 (ip), vehicle: Klucel (hydroxypropylcellulose) (HPC)
[13] = endpoint: mean survival time, dose: 400.0 mg/kg/injection, schedule: Q04DX003 (ip), vehicle: Klucel (hydroxypropylcellulose) (HPC)
[14] = endpoint: mean survival time, dose: 200.0 mg/kg/injection, schedule: Q01DX009 (ip), vehicle: saline with Tween-80

## Clc1ccc(/C=C/c2nccc(Cl)n2)cc1
[1]
  T/C: 106 % of control
[2]
  T/C: 106 % of control
[3]
  T/C: 106 % of control

## O=P1(NCCCl)OCCCN1CCCl (configuration not stated)
endpoint: mean survival time, dose: 12.5 mg/kg/injection, schedule: Q01DX001 (ip), vehicle: saline
  T/C: 101 % of control
endpoint: mean survival time, dose: 25.0 mg/kg/injection, schedule: Q01DX001 (ip), vehicle: saline
  T/C: 116 % of control and 117 % of control
endpoint: mean survival time, dose: 25.0 mg/kg/injection, schedule: Q01DX009 (ip), vehicle: saline
  T/C: 155 % of control
endpoint: mean survival time, dose: 25.0 mg/kg/injection, schedule: Q07DX003 (ip), vehicle: saline
  T/C: 110 % of control
endpoint: mean survival time, dose: 50.0 mg/kg/injection, schedule: Q01DX001 (ip), vehicle: saline
  T/C: 124 % of control
endpoint: mean survival time, dose: 50.0 mg/kg/injection, schedule: Q01DX009 (ip), vehicle: saline
  T/C: 160 % of control
endpoint: mean survival time, dose: 50.0 mg/kg/injection, schedule: Q01DX009 (ip), vehicle: water
  T/C: 173 % of control
endpoint: mean survival time, dose: 75.0 mg/kg/injection, schedule: Q07DX003 (ip), vehicle: saline
  T/C: 166 % of control
endpoint: mean survival time, dose: 100.0 mg/kg/injection, schedule: Q01DX009 (ip), vehicle: saline
  T/C: 260 % of control
endpoint: mean survival time, dose: 100.0 mg/kg/injection, schedule: Q01DX009 (ip), vehicle: water
  T/C: 185 % of control
endpoint: mean survival time, dose: 100.0 mg/kg/injection, schedule: Q07DX003 (ip), vehicle: saline
  T/C: 216 % of control
endpoint: mean survival time, dose: 125.0 mg/kg/injection, schedule: Q07DX003 (ip), vehicle: saline
  T/C: 206 % of control
[4]
  T/C: 249 % of control
endpoint: mean survival time, dose: 200.0 mg/kg/injection, schedule: Q01DX001 (ip), vehicle: saline
  T/C: 191 % of control and 221 % of control and 298 % of control
endpoint: mean survival time, dose: 200.0 mg/kg/injection, schedule: Q01DX009 (ip), vehicle: saline
  T/C: 167 % of control
endpoint: mean survival time, dose: 400.0 mg/kg/injection, schedule: Q01DX001 (ip), vehicle: saline
  T/C: 198 % of control
endpoint: mean survival time, dose: 800.0 mg/kg/injection, schedule: Q01DX001 (ip), vehicle: saline
  T/C: 206 % of control
endpoint: median survival time, dose: 65.0 mg/kg/injection, schedule: Q01DX014 (ip), vehicle: water
  T/C: 215 % of control and 216 % of control
endpoint: median survival time, dose: 108.0 mg/kg/injection, schedule: Q01DX001 (ip), vehicle: water
  T/C: 118 % of control and 121 % of control
endpoint: median survival time, dose: 180.0 mg/kg/injection, schedule: Q01DX001 (ip), vehicle: saline
  T/C: 172 % of control and 175 % of control
endpoint: median survival time, dose: 180.0 mg/kg/injection, schedule: Q01DX009 (ip), vehicle: water
  T/C: 291 % of control
endpoint: median survival time, dose: 180.0 mg/kg/injection, schedule: Q01DX014 (ip), vehicle: water
  T/C: 105 % of control
endpoint: median survival time, dose: 180.0 mg/kg/injection, schedule: Q07DX003 (ip), vehicle: water
  T/C: 289 % of control
endpoint: median survival time, dose: 300.0 mg/kg/injection, schedule: Q01DX001 (ip), vehicle: saline
  T/C: 261 % of control and 266 % of control
endpoint: median survival time, dose: 300.0 mg/kg/injection, schedule: Q01DX009 (ip), vehicle: water
  T/C: 187 % of control
endpoint: median survival time, dose: 300.0 mg/kg/injection, schedule: Q01DX014 (ip), vehicle: water
  T/C: 76 % of control
endpoint: median survival time, dose: 300.0 mg/kg/injection, schedule: Q07DX003 (ip), vehicle: water
  T/C: 168 % of control
endpoint: median survival time, dose: 400.0 mg/kg/injection, schedule: Q01DX001 (ip), vehicle: water
  T/C: 272 % of control and 297 % of control
endpoint: median survival time, dose: 500.0 mg/kg/injection, schedule: Q01DX001 (ip), vehicle: saline
  T/C: 44 % of control
endpoint: median survival time, dose: 500.0 mg/kg/injection, schedule: Q01DX009 (ip), vehicle: water
  T/C: 81 % of control
endpoint: median survival time, dose: 600.0 mg/kg/injection, schedule: Q01DX001 (ip), vehicle: water
  T/C: 227 % of control and 255 % of control
endpoint: median survival time, dose: 700.0 mg/kg/injection, schedule: Q01DX001 (ip), vehicle: water
  T/C: 46 % of control
endpoint: median survival time, dose: 800.0 mg/kg/injection, schedule: Q01DX001 (ip), vehicle: water
  T/C: 39 % of control
endpoint: median survival time, dose: 833.0 mg/kg/injection, schedule: Q01DX001 (ip), vehicle: saline
  T/C: 23 % of control
endpoint: median survival time, dose: 833.0 mg/kg/injection, schedule: Q01DX009 (ip), vehicle: water
  T/C: 24 % of control
endpoint: median survival time, dose: 900.0 mg/kg/injection, schedule: Q01DX001 (ip), vehicle: water
  T/C: 25 % of control

## CCCCCCc1cc(N=Nc2ccc(S(=O)(=O)Nc3occ(C)c3C)cc2)c(O)cc1O
[5]
  T/C: 93 % of control
[6]
  T/C: 93 % of control
[7]
  T/C: 98 % of control

## NC(=O)c1nnc(-c2ccc(Cl)cc2)[nH]c1=O
[1]
  T/C: 98 % of control
[2]
  T/C: 98 % of control
[3]
  T/C: 98 % of control

## CCOC(=O)c1c(N)cc(=O)[nH]c1O
endpoint: mean survival time, dose: 75.0 mg/kg/injection, schedule: Q01DX001 (ip), vehicle: saline
  T/C: 101 % of control
[4]
  T/C: 98 % of control
endpoint: mean survival time, dose: 300.0 mg/kg/injection, schedule: Q01DX001 (ip), vehicle: saline
  T/C: 95 % of control

## CCOC(=O)C(C)C1=CCCc2c(C)ccc(C)c21 (configuration not stated)
[8]
  T/C: 91 % of control
[9]
  T/C: 98 % of control
[10]
  T/C: 94 % of control
[11]
  T/C: 97 % of control
[12]
  T/C: 94 % of control
[13]
  T/C: 101 % of control

## O=[N+]([O-])c1ccc(C2=NC(c3ccccc3)CO2)cc1 (configuration not stated)
endpoint: mean survival time, dose: 50.0 mg/kg/injection, schedule: Q01DX001 (ip), vehicle: Klucel (hydroxypropylcellulose) (HPC)
  T/C: 96 % of control
endpoint: mean survival time, dose: 100.0 mg/kg/injection, schedule: Q01DX001 (ip), vehicle: Klucel (hydroxypropylcellulose) (HPC)
  T/C: 112 % of control
endpoint: mean survival time, dose: 200.0 mg/kg/injection, schedule: Q01DX001 (ip), vehicle: Klucel (hydroxypropylcellulose) (HPC)
  T/C: 94 % of control

## CC(C)(CBr)COC(=O)Nc1cccc2ccccc12
endpoint: mean survival time, dose: 50.0 mg/kg/injection, schedule: Q01DX009 (ip), vehicle: saline with Tween-80
  T/C: 91 % of control
[14]
  T/C: 87 % of control

## CC1(C)OCC(C2OC(C)(C)OC2C(O)c2cn(-c3ccccc3)nn2)O1 (configuration not stated)
endpoint: mean survival time, dose: 100.0 mg/kg/injection, schedule: Q01DX005 (ip), vehicle: saline
  T/C: 102 % of control
endpoint: mean survival time, dose: 200.0 mg/kg/injection, schedule: Q01DX005 (ip), vehicle: saline
  T/C: 104 % of control

## COc1ccc2cnnc(NN)c2c1
endpoint: mean survival time, dose: 75.0 mg/kg/injection, schedule: Q01DX001 (ip), vehicle: other
  T/C: 97 % of control

## CC(=O)Nc1c(I)cc2c(c1I)Cc1cc([N+](=O)[O-])ccc1-2
[5]
  T/C: 98 % of control
[6]
  T/C: 104 % of control
[7]
  T/C: 93 % of control

## O=C(O)c1ccc2c(c1)C(=O)c1cc([N+](=O)[O-])ccc1-2
[5]
  T/C: 102 % of control
[6]
  T/C: 102 % of control

## CCOC(=O)C(Cc1ccccc1)NP(=O)(OCCCl)OCCCl (configuration not stated)
[8]
  T/C: 104 % of control
[9]
  T/C: 95 % of control
[10]
  T/C: 96 % of control
[11]
  T/C: 95 % of control
[12]
  T/C: 101 % of control
[13]
  T/C: 87 % of control

## O=C(Nc1c(Cl)c(Cl)c2c(c1Cl)Cc1cc(Cl)ccc1-2)C(Cl)Cl
[5]
  T/C: 101 % of control
[6]
  T/C: 101 % of control
[7]
  T/C: 106 % of control

## [N-]=[N+]=NC1=C(Cl)C(=O)c2ccccc2C1=O
endpoint: mean survival time, dose: 6.25 mg/kg/injection, schedule: Q04DX002 (ip), vehicle: saline with Tween-80
  T/C: 101 % of control
endpoint: mean survival time, dose: 12.5 mg/kg/injection, schedule: Q04DX002 (ip), vehicle: saline with Tween-80
  T/C: 96 % of control
endpoint: mean survival time, dose: 25.0 mg/kg/injection, schedule: Q04DX002 (ip), vehicle: saline with Tween-80
  T/C: 96 % of control

## CC(C)OC(=O)c1ccccc1-c1ccccc1
endpoint: mean survival time, dose: 100.0 mg/kg/injection, schedule: Q01DX001 (ip), vehicle: other
  T/C: 102 % of control
endpoint: mean survival time, dose: 200.0 mg/kg/injection, schedule: Q01DX001 (ip), vehicle: other
  T/C: 96 % of control
endpoint: mean survival time, dose: 400.0 mg/kg/injection, schedule: Q01DX001 (ip), vehicle: other
  T/C: 87 % of control

## CCOC(=O)c1c(Cl)c(Cl)c(Cl)c(Cl)c1C(=O)OCC
[8]
  T/C: 105 % of control
endpoint: mean survival time, dose: 100.0 mg/kg/injection, schedule: Q01DX009 (ip), vehicle: saline with Tween-80
  T/C: 101 % of control
[9]
  T/C: 90 % of control
[1]
  T/C: 100 % of control
[10]
  T/C: 104 % of control
[14]
  T/C: 90 % of control
[11]
  T/C: 95 % of control
[2]
  T/C: 104 % of control
[12]
  T/C: 100 % of control
endpoint: mean survival time, dose: 400.0 mg/kg/injection, schedule: Q01DX009 (ip), vehicle: saline with Tween-80
  T/C: 93 % of control
[13]
  T/C: 105 % of control
[3]
  T/C: 102 % of control

## CCCCCCCC/C=C\CCCCCCCC(=O)OCCCCCCCCCCCCC
endpoint: mean survival time, dose: 100.0 mg/kg/injection, schedule: Q01DX009 (ip), vehicle: saline sonified
  T/C: 91 % of control
endpoint: mean survival time, dose: 200.0 mg/kg/injection, schedule: Q01DX009 (ip), vehicle: saline sonified
  T/C: 102 % of control
endpoint: mean survival time, dose: 400.0 mg/kg/injection, schedule: Q01DX009 (ip), vehicle: saline sonified
  T/C: 93 % of control
